Measurements: patent US20100160219A1, “Novel Polypeptides Inducing Dendritic Cell Migration, as Well as Medicines and Pharmaceutical Compositions Containing Same” (priority 2006, published 2010)

How the values were obtained:
[1] = tested on: Langerhans cells and dendritic cells; assay: In vivo migration-inducing assay in mice (ear application, auricular lymph nodes); conditions: mouse, 5 μl of 25 mg/ml in DMSO on left ear, 24 hours
Experimental: The peptide of SEQ ID NO.16 was also tested in vivo in mice in a migration-inducing assay. In order to do this, a population of mice was used in which the EGFP gene is introduced in front of the gene for Langerin, which makes Langerhans cells naturally fluorescent. The gene encoding CCR6 is also disrupted in these mice but normal numbers of Langerhans cells are present in the epidermis. These mice are obtained by crossing two murine strains: the Langerin DTR EGFP line (Kissenpfennig A, et al. in Trends Immunol. 2006 March; 27(3):132-9. Immunity. 2005 May; 22(5):643-54) maintained at the CNRS centre for distribution, typing and archiving at Orleans, France, and subsequently available from the European Mouse Mutant Archive (EMMA, GSF National Research Centre for Environment and Health, Institute of Experimental Genetics, Ingolstädter Landstrasse 1, D-85764 Neuherberg, Munich, Germany, www.emmanet.org) under the identification number EM:01822, and the CCR6 knockout line, published by Cook et al. in Immunity, 2000, 12: 495-503 and by Lukrs et al. in J. Exp. Med., 2001, 194, 551-555.
The peptide of SEQ ID NO.16 is prepared in DMSO at a concentration of 25 mg/ml. […] The number of (naturally fluorescent) Langerhans cells is counted and the total number of dendritic cells identified by labelling with an anti-CD11c antibody.

dendritic cells = assay: In vitro assay of dendritic cell migration; assay type: cell-based; conditions: cells incubated 24 hours with the fraction or polypeptide, then migration towards MIP-3β; ESAs at final dilution 1:20; index relative to untreated control
Experimental: The migration assay involves preliminary incubation of dendritic cells with the polypeptide or fraction to be tested, and 24 hours later the cells are washed and loaded onto the upper part of a migration chamber, the lower part containing the chemokine MIP3-β. The cells that have migrated from the upper compartment to the lower compartment are counted, and migration is quantified by determining the percentage they represent of the number of cells that were initially loaded into the upper chamber. The activity of a polypeptide corresponds to the percentage of cells that have migrated.
After 4 to 6 days of differentiation, the cells obtained are frozen in liquid nitrogen and can be stored for several years.
The dendritic cells are thawed and cultured in RPMI medium with 5% FCS, gentamicin, GM-CSF and TNFα to obtain interstitial dendritic cells. […] The cells are counted 48 hours later and 300,000 cells are placed in each Falcon culture tube in a volume of 300 μl. […] After 24 hours, the tubes are recovered, and the cells are counted and resuspended in the culture medium with 1% bovine serum albumin. • 6. […]
After 24 hours, the inserts are removed and the cells that crossed them and are at the bottom of the wells are recovered and counted. The results are expressed as the percentage of cells relative to the number originally placed in the insert. […]

Substance	number of dendritic cells (CD11c) and Langerhans cells in auricular lymph nodes, treated side vs DMSO side [1]	migration of dendritic cells (migration-inducing activity, migration index) (dendritic cells)
DTGSGGDDSEGAWGGEQQQVQQHGQSEDR (Amino acids 30-58 of the sequence of GRA5 protein from PRU strain of toxoplasma gondii) [SEQ ID NO.16, fragment corresponding to amino acids 30 to 58 of the GRA5-PRU protein, prepared by peptide synthesis]	induces the migration of these cells in vivo	
glutathione S-transferase [GST, reference compound]		no activity
